Values of other authors as cited in PMC8966651, “PKPD Modeling of the Inoculum Effect of Acinetobacter baumannii on Polymyxin B in vivo” (Frontiers in Pharmacology, 2022).
Where two headings read alike, the source gives them in different places.

Legend:
E. coli [1] = conditions: cited from earlier work; for E. coli MICs at initial inoculum 10^7 CFU/ml compared to 10^5 CFU/ml: in vitro
Source text: The clinical relevance of in vitro IE has been questioned in previous studies ([Maglio et al., 2004]; [Maglio et al., 2005]; [Fantin et al., 2019]).

E. coli [2] = conditions: murine thigh infection model; ref de Araujo et al., 2011; cited from earlier work
Source text: An innovative aspect of this study was the refinement of a PKPD model, based on the model developed after in vitro TK experiments conducted with A. baumannii and PMB ([Akrong et al., 2021]). […] The different growth behavior between in vitro and in vivo has been associated in literature ...

A. baumannii = conditions: initial inoculum of A. baumannii increased from 10^7 to 10^8 CFU/lung; ref Lin et al., 2018; cited from earlier work
Source text: Yet the IE of A. baumannii on polymyxins in vivo remains to be investigated. […] But IE was only investigated on rare occasions in vivo, with antibiotics such as marbofloxacin ([Ferran et al., 2009]), piperacillin-tazobatam ([Harada et al., 2014]), ertapenem ([Maglio et al., 2005]), meropenem ([Mizunaga et al., 2005]) or colistin ([Fantin et al., 2019]) against various Gram-negative pathogens such as E. coli, K. pneumoniae ...

## CO/N=C(\C(=O)N[C@@H]1C(=O)N2C(C(=O)[O-])=C(C[N+]3(C)CCCC3)CS[C@H]12)c1csc(N)n1 [cefepime]
E. coli [1]; ref Maglio et al., 2004
  E. coli MICs at initial inoculum 10^7 CFU/ml compared to 10^5 CFU/ml: elevations of E. coli MICs
E. coli [1]; neutropenic mouse thigh infection model, ref Maglio et al., 2004
  inoculum effect (IE) in vivo: no IE was observed in vivo

## C[C@@H](O)[C@H]1C(=O)N2C(C(=O)O)=C(S[C@@H]3CN[C@H](C(=O)Nc4cccc(C(=O)O)c4)C3)[C@H](C)[C@H]12 [ertapenem]
E. coli [1]; ref Maglio et al., 2005
  E. coli MICs at initial inoculum 10^7 CFU/ml compared to 10^5 CFU/ml: elevations of E. coli MICs
E. coli [1]; neutropenic mouse thigh infection model, ref Maglio et al., 2005
  inoculum effect (IE) in vivo: no IE was observed in vivo

## CCN1CCN(C(=O)N[C@@H](C(=O)N[C@@H]2C(=O)N3[C@@H]2SC(C)(C)[C@@H]3C(=O)O)c2ccccc2)C(=O)C1=O [piperacillin]
E. coli [2]
  maximum killing effect in vivo as compared to in vitro: two times smaller

## colistin
A. baumannii
  efficacy of nebulized colistin with increasing inoculum: decrease in the efficacy
E. coli [1]; mice infected with E. coli, ref Fantin et al., 2019
  inoculum effect (IE) in vivo: observed an in vivo IE
